Literature values as cited in patent publication US8951728B2, “Template directed split and mix synthesis of small molecule libraries” (ChemGene Holding ApS, priority 2004, dated 2015).

Molecular target: alphaV/beta3 integrin receptor (Homo sapiens, UniProt P05106+P06756)
Sequence (P06756 31-889 limits assumed): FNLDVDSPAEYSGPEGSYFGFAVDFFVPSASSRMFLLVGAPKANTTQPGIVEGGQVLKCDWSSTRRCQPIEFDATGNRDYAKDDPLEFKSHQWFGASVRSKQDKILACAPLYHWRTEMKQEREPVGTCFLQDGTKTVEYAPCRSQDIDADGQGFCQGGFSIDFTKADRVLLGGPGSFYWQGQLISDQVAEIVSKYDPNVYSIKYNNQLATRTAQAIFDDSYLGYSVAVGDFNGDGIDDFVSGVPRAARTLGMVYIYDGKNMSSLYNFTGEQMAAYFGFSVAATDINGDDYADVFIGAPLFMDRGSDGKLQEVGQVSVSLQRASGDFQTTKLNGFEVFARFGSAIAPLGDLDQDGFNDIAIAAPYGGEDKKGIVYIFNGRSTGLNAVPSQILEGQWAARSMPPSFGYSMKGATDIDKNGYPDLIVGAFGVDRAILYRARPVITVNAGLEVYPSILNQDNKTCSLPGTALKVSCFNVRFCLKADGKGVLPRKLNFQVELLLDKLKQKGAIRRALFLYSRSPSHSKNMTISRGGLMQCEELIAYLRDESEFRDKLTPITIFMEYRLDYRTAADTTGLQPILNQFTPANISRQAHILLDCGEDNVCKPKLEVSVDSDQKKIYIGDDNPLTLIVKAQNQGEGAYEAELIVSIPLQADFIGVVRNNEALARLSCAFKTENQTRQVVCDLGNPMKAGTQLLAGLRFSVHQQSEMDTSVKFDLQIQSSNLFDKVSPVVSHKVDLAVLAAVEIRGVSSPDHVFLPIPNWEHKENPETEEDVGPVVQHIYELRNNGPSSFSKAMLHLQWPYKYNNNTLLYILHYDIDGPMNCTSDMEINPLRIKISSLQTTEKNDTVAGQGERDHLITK
Sequence (P06756 891-1048 limits assumed): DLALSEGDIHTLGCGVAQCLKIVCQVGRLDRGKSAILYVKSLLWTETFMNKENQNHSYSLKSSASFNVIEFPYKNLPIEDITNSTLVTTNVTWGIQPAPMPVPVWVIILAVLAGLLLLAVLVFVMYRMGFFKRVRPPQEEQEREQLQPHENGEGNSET
Sequence (P05106 27-788): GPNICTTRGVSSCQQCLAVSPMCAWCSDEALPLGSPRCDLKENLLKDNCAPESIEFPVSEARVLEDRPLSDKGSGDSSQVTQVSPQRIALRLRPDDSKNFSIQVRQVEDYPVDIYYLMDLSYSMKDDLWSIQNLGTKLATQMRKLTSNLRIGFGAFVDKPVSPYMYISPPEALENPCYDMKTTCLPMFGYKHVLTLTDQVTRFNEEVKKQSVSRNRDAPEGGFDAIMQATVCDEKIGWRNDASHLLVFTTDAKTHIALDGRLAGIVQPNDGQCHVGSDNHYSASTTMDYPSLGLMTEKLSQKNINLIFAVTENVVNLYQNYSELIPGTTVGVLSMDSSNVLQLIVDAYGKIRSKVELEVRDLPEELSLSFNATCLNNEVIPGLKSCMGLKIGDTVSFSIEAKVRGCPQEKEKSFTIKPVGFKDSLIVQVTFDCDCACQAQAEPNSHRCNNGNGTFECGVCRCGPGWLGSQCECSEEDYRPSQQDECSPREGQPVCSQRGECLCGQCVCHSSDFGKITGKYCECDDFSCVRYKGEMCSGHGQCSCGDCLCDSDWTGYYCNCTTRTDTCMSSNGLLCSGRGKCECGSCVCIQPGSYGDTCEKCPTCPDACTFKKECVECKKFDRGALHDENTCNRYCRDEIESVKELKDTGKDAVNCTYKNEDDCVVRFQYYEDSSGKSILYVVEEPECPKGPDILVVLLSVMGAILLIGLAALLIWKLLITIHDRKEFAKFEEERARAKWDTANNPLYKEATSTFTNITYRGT

O=C(O)CC(NC(=O)CNC(=O)CCCc1ccc2c(n1)NCCC2)C(=O)O (centres unmarked) [Feuston 5]
affinity compared to the RGD-tripeptide: ten-fold increased affinity
Kd (Feuston et al., J Med. Chem. 2002): 111 nM
